Measurements as given in patent US10214519B2, “Phosphatidylinositol 3-kinase inhibitors” (Gilead Sciences, Inc., priority 2016, dated 2019).

Biological target: PI3Kβ (Homo sapiens (Human), UniProt P42338)
Test: PI3K isoform TR-FRET enzymatic assay (PI3Kβ)
Assay type: biochemical
Details: 2× Km ATP, 30 minutes at 25° C.
How it was run: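 Heterodimeric recombinant PI3Kβ was incubated with compound 30 minutes at 25° C. Product was detected by TR-FRET competition with 10 nM labeled PIP3 for 35 nM Eu-GRP-1 PH domain after EDTA stop. Data were normalized to 1 μM wortmannin and DMSO, and IC50 was taken from a four-parameter fit.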

PI3Kβ, sequence (P42338 whole entry, canonical isoform): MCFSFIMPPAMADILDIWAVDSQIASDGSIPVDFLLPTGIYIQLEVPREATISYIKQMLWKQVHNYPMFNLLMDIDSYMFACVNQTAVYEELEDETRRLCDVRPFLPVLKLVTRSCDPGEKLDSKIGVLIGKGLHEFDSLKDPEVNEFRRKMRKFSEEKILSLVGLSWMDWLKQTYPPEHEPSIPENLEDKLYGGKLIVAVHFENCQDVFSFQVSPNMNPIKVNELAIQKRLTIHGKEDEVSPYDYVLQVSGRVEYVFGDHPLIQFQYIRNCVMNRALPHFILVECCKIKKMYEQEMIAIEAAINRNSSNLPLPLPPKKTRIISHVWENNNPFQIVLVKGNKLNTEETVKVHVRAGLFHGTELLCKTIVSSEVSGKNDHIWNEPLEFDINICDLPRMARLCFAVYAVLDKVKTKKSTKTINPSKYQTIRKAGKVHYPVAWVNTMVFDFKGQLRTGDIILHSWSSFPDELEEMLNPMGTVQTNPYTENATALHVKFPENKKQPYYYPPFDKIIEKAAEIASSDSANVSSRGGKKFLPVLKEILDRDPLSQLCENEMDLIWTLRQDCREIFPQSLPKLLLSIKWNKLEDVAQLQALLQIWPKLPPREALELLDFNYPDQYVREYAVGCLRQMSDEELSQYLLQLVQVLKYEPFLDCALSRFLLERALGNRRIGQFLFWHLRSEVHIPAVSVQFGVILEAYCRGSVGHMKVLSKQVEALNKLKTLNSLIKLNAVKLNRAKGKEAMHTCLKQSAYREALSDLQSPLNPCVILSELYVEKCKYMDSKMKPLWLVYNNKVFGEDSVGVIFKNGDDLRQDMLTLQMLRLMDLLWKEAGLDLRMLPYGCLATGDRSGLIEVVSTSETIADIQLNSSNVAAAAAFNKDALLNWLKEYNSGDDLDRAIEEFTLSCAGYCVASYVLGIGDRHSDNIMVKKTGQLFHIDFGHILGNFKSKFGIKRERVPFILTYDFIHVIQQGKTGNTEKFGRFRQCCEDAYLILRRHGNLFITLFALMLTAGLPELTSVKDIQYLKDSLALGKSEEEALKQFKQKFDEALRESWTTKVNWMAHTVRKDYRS
PI3Kβ, sequence (P27986 whole entry partner, canonical isoform): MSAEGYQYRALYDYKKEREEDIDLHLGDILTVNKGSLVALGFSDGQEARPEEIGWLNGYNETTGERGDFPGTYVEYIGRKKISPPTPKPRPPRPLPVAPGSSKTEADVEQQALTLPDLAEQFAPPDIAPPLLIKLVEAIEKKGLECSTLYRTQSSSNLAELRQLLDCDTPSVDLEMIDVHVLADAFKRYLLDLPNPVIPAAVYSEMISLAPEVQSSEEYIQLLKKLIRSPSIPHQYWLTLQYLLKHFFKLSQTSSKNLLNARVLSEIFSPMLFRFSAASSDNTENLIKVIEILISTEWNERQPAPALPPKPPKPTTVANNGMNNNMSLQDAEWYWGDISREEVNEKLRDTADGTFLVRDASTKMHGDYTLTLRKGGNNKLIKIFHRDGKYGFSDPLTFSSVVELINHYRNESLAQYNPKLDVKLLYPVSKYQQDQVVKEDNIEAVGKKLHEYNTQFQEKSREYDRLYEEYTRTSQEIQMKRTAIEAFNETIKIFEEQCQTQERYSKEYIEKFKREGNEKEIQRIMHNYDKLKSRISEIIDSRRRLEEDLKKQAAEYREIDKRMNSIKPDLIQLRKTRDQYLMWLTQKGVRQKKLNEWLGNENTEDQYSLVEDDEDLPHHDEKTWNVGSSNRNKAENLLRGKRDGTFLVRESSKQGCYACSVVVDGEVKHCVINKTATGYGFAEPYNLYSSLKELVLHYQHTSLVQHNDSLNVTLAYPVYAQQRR

Compared with `Cc1nnc(-c2cc(N3CCOCC3)cc3c2nc(C)n3-c2c(F)cnc3ccccc23)[nH]1` [Example 154, 4-(1-(3-fluoroquinolin-4-yl)-2-methyl-4-(5-methyl-4H-1,2,4-triazol-3-yl)-1H-benzo[d]imidazol-6-yl)morpholine], `Cc1nnc(-c2cc(N3CCOCC3)cc3c2nc(C)n3-c2c(Cl)cnc3c(Cl)cccc23)[nH]1` [Example 157, 4-(1-(3,8-dichloroquinolin-4-yl)-2-methyl-4-(5-methyl-4H-1,2,4-triazol-3-yl)-1H-benzo[d]imidazol-6-yl)morpholine] is 47-fold lower in IC50: 2200 nM for the first, 47 nM for the second.

`CCc1nc2c(-c3nnc[nH]3)cc(N3CCOCC3)cc2n1-c1c(C)cnc2c(C#N)cccc12` [Example 155, 4-(2-ethyl-6-morpholino-4-(4H-1,2,4-triazol-3-yl)-1H-benzo[d]imidazol-1-yl)-3-methylquinoline-8-carbonitrile] and `Cc1cnc2c(C#N)cccc2c1-n1c(C)nc2c(-c3nnc[nH]3)cc(N3CCOCC3)cc21` [Example 156, 3-methyl-4-(2-methyl-6-morpholino-4-(4H-1,2,4-triazol-3-yl)-1H-benzo[d]imidazol-1-yl)quinoline-8-carbonitrile] are the same in IC50: 20 nM for the first, 20 nM for the second.

First: Cc1cc(-n2c(C)nc3c(-c4nnn[nH]4)cc(N4CCOCC4)cc32)c2ccccc2n1 [Example 160, 4-(2-methyl-1-(2-methylquinolin-4-yl)-4-(1H-tetrazol-5-yl)-1H-benzo[d]imidazol-6-yl)morpholine]
Second: Cc1nc2c(-c3nnn[nH]3)cc(N3CCOCC3)cc2n1-c1ccnc2c(Cl)cccc12 [Example 161]
The IC50 of the first is 20-fold higher: 470 nM for the first, 23 nM for the second. The second is the more potent here.

Going from `Cc1nc2c(-c3nnco3)cc(N3CCOCC3)cc2n1-c1ccnc2c(Cl)cccc12` [Example 162, 4-(1-(8-chloroquinolin-4-yl)-2-methyl-4-(1,3,4-oxadiazol-2-yl)-1H-benzo[d]imidazol-6-yl)morpholine] to `Cc1nc2c(-c3ncco3)cc(N3CCOCC3)cc2n1-c1ccnc2c(Cl)cccc12` [Example 204, 4-[3-(8-chloroquinolin-4-yl)-2-methyl-7-(1,3-oxazol-2-yl)benzimidazol-5-yl]morpholine], the IC50 falls from 77 nM to 8 nM (9.6-fold).

`Cc1nc2c(-c3nnc(N)o3)cc(N3CCOCC3)cc2n1-c1ccnc2cc(F)ccc12` [Example 163, 5-(1-(7-fluoroquinolin-4-yl)-2-methyl-6-morpholino-1H-benzo[d]imidazol-4-yl)-1,3,4-oxadiazol-2-amine] and `Cc1nc2c(-c3nnc(N)s3)cc(N3CCOCC3)cc2n1-c1ccnc2cc(F)ccc12` [Example 165, 5-(1-(7-fluoroquinolin-4-yl)-2-methyl-6-morpholino-1H-benzo[d]imidazol-4-yl)-1,3,4-thiadiazol-2-amine] are within 1.5-fold of each other in IC50: 630 nM for the first, 720 nM for the second.

Compared with `Cc1nc2c(-c3n[nH]c(=S)o3)cc(N3CCOCC3)cc2n1-c1ccnc2cc(F)ccc12` [Example 164, 5-(1-(7-fluoroquinolin-4-yl)-2-methyl-6-morpholino-1H-benzo[d]imidazol-4-yl)-1,3,4-oxadiazole-2(3H)-thione], `Cc1nc2c(-c3n[nH]c(=O)o3)cc(N3CCOCC3)cc2n1-c1ccnc2cc(F)ccc12` [Example 166, 5-(1-(7-fluoroquinolin-4-yl)-2-methyl-6-morpholino-1H-benzo[d]imidazol-4-yl)-1,3,4-oxadiazol-2(3H)-one] is 3.7-fold higher in IC50: 130 nM for the first, 480 nM for the second. The first is the more potent here.

`Cc1nc2c(-c3nnc[nH]3)cc(N3CCOCC3)cc2n1-c1cc(-c2cn[nH]c2)nc2ccccc12` [Example 167, 4-(1-(2-(1H-pyrazol-4-yl)quinolin-4-yl)-2-methyl-4-(4H-1,2,4-triazol-3-yl)-1H-benzo[d]imidazol-6-yl)morpholine 2,2,2-trifluoroacetate] and `Cc1nc2c(-c3nnc[nH]3)cc(N3CCOCC3)cc2n1-c1cc(N2CCNCC2)nc2ccccc12` [Example 168, 4-(2-methyl-1-(2-(piperazin-1-yl)quinolin-4-yl)-4-(4H-1,2,4-triazol-3-yl)-1H-benzo[d]imidazol-6-yl)morpholine 2,2,2-trifluoroacetate] are within 1.5-fold of each other in IC50: 12 nM for the first, 9 nM for the second.

`Cc1nnc(-c2cc(N3CCOCC3)cc3c2nc(C)n3-c2cc(N3CCNCC3)nc3ccccc23)[nH]1` [Example 169, 4-(2-methyl-4-(5-methyl-4H-1,2,4-triazol-3-yl)-1-(2-(piperazin-1-yl)quinolin-4-yl)-1H-benzo[d]imidazol-6-yl)morpholine] and `Cc1nc2c(-c3nnc(Cl)[nH]3)cc(N3CCOCC3)cc2n1-c1ccnc2c(Cl)cccc12` [Example 178, 4-[3-(8-chloroquinolin-4-yl)-7-(5-chloro-4H-1,2,4-triazol-3-yl)-2-methylbenzimidazol-5-yl]morpholine] are within 1.5-fold of each other in IC50: 16 nM for the first, 12 nM for the second.

Going from `Cc1nc2c(-c3nnc(Cl)[nH]3)cc(N3CCOCC3)cc2n1-c1ccnc2c(Cl)ccc(F)c12` [Example 170, 4-(4-(5-chloro-4H-1,2,4-triazol-3-yl)-1-(8-chloro-5-fluoroquinolin-4-yl)-2-methyl-1H-benzo[d]imidazol-6-yl)morpholine] to `Cc1nc2c(-c3nnc(Cl)[nH]3)cc(N3CCOCC3)cc2n1-c1ccnc2c(F)ccc(F)c12` [Example 180, 4-[7-(5-chloro-4H-1,2,4-triazol-3-yl)-3-(5,8-difluoroquinolin-4-yl)-2-methylbenzimidazol-5-yl]morpholine], the IC50 rises from 7 nM to 42 nM (6-fold). The first is the more potent here.

`Cc1nc2c(-c3nnc(Cl)[nH]3)cc(N3CCOCC3)cc2n1-c1ccnc2c(Cl)c(F)ccc12` [Example 171, 4-(4-(5-chloro-4H-1,2,4-triazol-3-yl)-1-(8-chloro-7-fluoroquinolin-4-yl)-2-methyl-1H-benzo[d]imidazol-6-yl)morpholine] and `CCc1nc2c(-c3nnc(Cl)[nH]3)cc(N3CCOCC3)cc2n1-c1ccnc2c(Cl)c(F)ccc12` [Example 172, 4-(4-(5-chloro-4H-1,2,4-triazol-3-yl)-1-(8-chloro-7-fluoroquinolin-4-yl)-2-ethyl-1H-benzo[d]imidazol-6-yl)morpholine] are the same in IC50: 100 nM for the first, 100 nM for the second.

Going from `Fc1ccc2c(-n3c(C4CC4)nc4c(-c5nnc(Cl)[nH]5)cc(N5CCOCC5)cc43)ccnc2c1Cl` [Example 173, 4-(4-(5-chloro-4H-1,2,4-triazol-3-yl)-1-(8-chloro-7-fluoroquinolin-4-yl)-2-cyclopropyl-1H-benzo[d]imidazol-6-yl)morpholine] to `Fc1ccc(Cl)c2nccc(-n3c(C4CC4)nc4c(-c5nnc(Cl)[nH]5)cc(N5CCOCC5)cc43)c12` [Example 174, 4-(4-(5-chloro-4H-1,2,4-triazol-3-yl)-1-(8-chloro-5-fluoroquinolin-4-yl)-2-cyclopropyl-1H-benzo[d]imidazol-6-yl)morpholine], the IC50 falls from 140 nM to 13 nM (11-fold).

Compared with `Cc1nc2c(-c3ncc[nH]3)cc(N3CCOCC3)cc2n1-c1ccnc2c(Cl)cccc12` [Example 175, 4-[3-(8-chloroquinolin-4-yl)-7-(1H-imidazol-2-yl)-2-methylbenzimidazol-5-yl]morpholine], `Cc1c[nH]c(-c2cc(N3CCOCC3)cc3c2nc(C)n3-c2ccnc3c(Cl)cccc23)n1` [Example 176, 4-[3-(8-chloroquinolin-4-yl)-2-methyl-7-(4-methyl-1H-imidazol-2-yl)benzimidazol-5-yl]morpholine] is 51-fold higher in IC50: 10 nM for the first, 510 nM for the second. The first is the more potent here.

First: Cc1nc[nH]c1-c1cc(N2CCOCC2)cc2c1nc(C)n2-c1ccnc2c(Cl)cccc12 [Example 177, 4-[3-(8-chloroquinolin-4-yl)-2-methyl-7-(4-methyl-1H-imidazol-5-yl)benzimidazol-5-yl]morpholine]
Second: Cc1ncc(-c2cc(N3CCOCC3)cc3c2nc(C)n3-c2ccnc3c(Cl)cccc23)[nH]1 [Example 201, 4-[3-(8-chloroquinolin-4-yl)-2-methyl-7-(2-methyl-1H-imidazol-5-yl)benzimidazol-5-yl]morpholine]
The IC50 of the first is 12-fold higher: 230 nM for the first, 19 nM for the second. The second is the more potent here.

`CCc1nc2c(-c3nnc(Cl)[nH]3)cc(N3CCOCC3)cc2n1-c1ccnc2c(F)ccc(F)c12` [Example 179, 4-[7-(5-chloro-4H-1,2,4-triazol-3-yl)-3-(5,8-difluoroquinolin-4-yl)-2-ethylbenzimidazol-5-yl]morpholine] and `CCCc1nc2c(-c3nnc(Cl)[nH]3)cc(N3CCOCC3)cc2n1-c1ccnc2c(F)ccc(F)c12` [Example 182, 4-[7-(5-chloro-4H-1,2,4-triazol-3-yl)-3-(5,8-difluoroquinolin-4-yl)-2-propylbenzimidazol-5-yl]morpholine] are within 1.5-fold of each other in IC50: 44 nM for the first, 34 nM for the second.

Going from `Fc1ccc(F)c2c(-n3c(C4CC4)nc4c(-c5nnc(Cl)[nH]5)cc(N5CCOCC5)cc43)ccnc12` [Example 181, 4-[7-(5-chloro-4H-1,2,4-triazol-3-yl)-2-cyclopropyl-3-(5,8-difluoroquinolin-4-yl)benzimidazol-5-yl]morpholine] to `Clc1cccc2c(-n3c(C4CCCO4)nc4c(-c5cccnc5)cc(N5CCOCC5)cc43)ccnc12` (centres unmarked) [Example 199], the IC50 rises from 210 nM to 610 nM (2.9-fold).

First: Cc1nc2c(-c3cn[nH]c3)cc(N3CCOCC3)cc2n1-c1ccnc2c(Cl)cccc12 [Example 183, 4-(1-(8-chloroquinolin-4-yl)-2-methyl-4-(1H-pyrazol-4-yl)-1H-benzo[d]imidazol-6-yl)morpholine]
Second: Cc1nc2c(-c3cncn3C)cc(N3CCOCC3)cc2n1-c1ccnc2c(Cl)cccc12 [Example 202, 4-[3-(8-chloroquinolin-4-yl)-2-methyl-7-(3-methylimidazol-4-yl)benzimidazol-5-yl]morpholine]
The IC50 of the first is lower: 170 nM for the first, > 10000 nM for the second. The first is the more potent here.

`Clc1cccc2c(-n3c(C4CCCO4)nc4c(-c5ccccc5)cc(N5CCOCC5)cc43)ccnc12` (centres unmarked) [Example 198] and `Cc1nc2c(-c3cn(C)cn3)cc(N3CCOCC3)cc2n1-c1ccnc2c(Cl)cccc12` [Example 203, 4-[3-(8-chloroquinolin-4-yl)-2-methyl-7-(1-methylimidazol-4-yl)benzimidazol-5-yl]morpholine] are the same in IC50: 120 nM for the first, 120 nM for the second.

Work on `Cc1nc2c(-c3ncco3)cc(N3CCOCC3)cc2n1-c1ccnc2c(F)cccc12` [Example 200, 4-(1-(8-fluoroquinolin-4-yl)-2-methyl-4-(oxazol-2-yl)-1H-benzo[d]imidazol-6-yl)morpholine] yielded an IC50 of 9 nM.
